# System: HCV replicon I389luc-ubi-neo/NS3-3'/5.1
# Test: Anti-HCV replicon assay (luciferase activity) in Huh-5-2 cells
# Format: cell-based, Hepatitis C virus
# Conditions: Hepatitis C virus, Huh-5-2, 72 h, concentration required to inhibit luciferase activity in the replicon system by 50%
# Method: Cells were seeded at a density of 7000 cells per well in 96 well View Plate™ (Packard) in medium containing the same components as described above, except for G418. Cells were allowed to adhere and proliferate for 24 hr. At that time, culture medium was removed and serial dilutions of the test compounds were added in culture medium lacking G418. Interferon alfa 2a (500 IU) was included as a positive control. Plates were further incubated at 37° C. and 5% CO2 for 72 hours. Replication of the HCV replicon in Huh-5 cells results in luciferase activity in the cells. Luciferase activity is measured by adding 50 μl of 1×Glo-lysis buffer (Promega) for 15 minutes followed by 50 ul of the Steady-Glo Luciferase assay reagent (Promega). Luciferase activity is measured with a luminometer and the signal in each individual well is expressed as a percentage of the untreated cultures. […] Instead the density of the culture is measured by means of the MTS method (Promega).
row,SMILES,IC50
1,"COCCN1C(=O)c2ccc(F)cc2C(C(=O)Nc2cccc(OC)c2)C1c1cccs1 (stereo not drawn) [C77, 6-fluoro-2-(2-methoxyethyl)-N-(3-methoxyphenyl)-1-oxo-3-(thiophen-2-yl)-1,2,3,4-tetrahydroisoquinoline-4-carboxamide]",11.2 µg/mL
2,"COCCN1C(=O)c2cc(N)ccc2C(C(=O)Nc2cccc(OC)c2)C1c1cccs1 (stereo not drawn) [C147, 7-amino-2-(2-methoxyethyl)-N-(3-methoxyphenyl)-1-oxo-3-(thiophen-2-yl)-1,2,3,4-tetrahydroisoquinoline-4-carboxamide]",0.14 µg/mL
3,"COCCN1C(=O)c2ccc(C)cc2C(C(=O)Nc2cccc(OC)c2)C1c1cccs1 (stereo not drawn) [C40, 2-(2-Methoxyethyl)-N-(3-methoxyphenyl)-6-methyl-1-oxo-3-(thiophen-2-yl)-1,2,3,4-tetrahydroisoquinoline-4-carboxamide]",7.76 µg/mL
4,"COCCN1C(=O)c2ccccc2C(C(=O)Nc2ccc(NC(C)=O)cc2)C1c1cccs1 (stereo not drawn) [C129, N-(4-acetamidophenyl)-2-(2-methoxyethyl)-1-oxo-3-(thiophen-2-yl)-1,2,3,4-tetrahydroisoquinoline-4-carboxamide]",6.66 µg/mL
5,"COCCN1C(=O)c2cccc(F)c2C(C(=O)Nc2cccc(OC)c2)C1c1cccs1 (stereo not drawn) [C61, 5-Fluoro-2-(2-methoxyethyl)-N-(3-methoxyphenyl)-1-oxo-3-(thiophen-2-yl)-1,2,3,4-tetrahydroisoquinoline-4-carboxamide]",0.22 µg/mL
6,"COCCN1C(=O)c2ccccc2C(C(=O)Nc2cc(-c3ccccc3)[nH]n2)C1c1cccs1 (stereo not drawn) [C182, 2-(2-methoxyethyl)-1-oxo-N-(5-phenyl-1H-pyrazol-3-yl)-3-(thiophen-2-yl)-1,2,3,4-tetrahydroisoquinoline-4-carboxamide]",21.8 µg/mL
7,"COCCN1C(=O)c2ccccc2C(C(=O)Nc2ccc(Cl)cn2)C1c1cccs1 (stereo not drawn) [C223, N-(5-chloropyridin-2-yl)-2-(2-methoxyethyl)-1-oxo-3-(thiophen-2-yl)-1,2,3,4-tetrahydroisoquinoline-4-carboxamide]",1 µg/mL
8,"COCCN1C(=O)c2ccccc2C(C(=O)Nc2cccc(OC)c2)C1c1ccc(C)s1 (stereo not drawn) [C12, 2-(2-Methoxyethyl)-N-(3-methoxyphenyl)-3-(5-methylthiophen-2-yl)-1-oxo-1,2,3,4-tetrahydroisoquinoline-4-carboxamide]",1.2 µg/mL
9,"COCCN1C(=O)c2ccccc2C(C(=O)Nc2ccc3[nH]ncc3c2)C1c1cccs1 (stereo not drawn) [C132, N-(1H-indazol-5-yl)-2-(2-methoxyethyl)-1-oxo-3-(thiophen-2-yl)-1,2,3,4-tetrahydroisoquinoline-4-carboxamide]",1 µg/mL
10,"CCN1CCCC1CN1C(=O)c2ccccc2C(C(=O)Nc2cccc(OC)c2)C1c1cccs1 (stereo not drawn) [C67, 2-((1-ethylpyrrolidin-2-yl)methyl)-N-(3-methoxyphenyl)-1-oxo-3-(thiophen-2-yl)-1,2,3,4-tetrahydroisoquinoline-4-carboxamide]",10.4 µg/mL
11,"COCCN1C(=O)c2ccccc2C(C(=O)Nc2cccc(-n3cccc3)c2)C1c1cccs1 (stereo not drawn) [C115, N-(3-(1H-pyrrol-1-yl)phenyl)-2-(2-methoxyethyl)-1-oxo-3-(thiophen-2-yl)-1,2,3,4-tetrahydroisoquinoline-4-carboxamide]",0.29 µg/mL
12,"COCCN1C(=O)c2ccccc2C(C(=O)Nc2cccc(OC)c2)C1c1cccn1C (stereo not drawn) [C106, 2-(2-methoxyethyl)-N-(3-methoxyphenyl)-3-(1-methyl-1H-pyrrol-2-yl)-1-oxo-1,2,3,4-tetrahydroisoquinoline-4-carboxamide]",44.4 µg/mL
13,"COCCN1C(=O)c2ccccc2C(C(=O)Nc2cc[nH]n2)C1c1cccs1 (stereo not drawn) [C184, 2-(2-methoxyethyl)-1-oxo-N-(1H-pyrazol-3-yl)-3-(thiophen-2-yl)-1,2,3,4-tetrahydroisoquinoline-4-carboxamide]",55 µg/mL
14,"COCCN1C(=O)c2ccccc2C(C(=O)Nc2ccc(N3CCOCC3)cc2)C1c1cccs1 (stereo not drawn) [C121, 2-(2-methoxyethyl)-N-(4-morpholinophenyl)-1-oxo-3-(thiophen-2-yl)-1,2,3,4-tetrahydroisoquinoline-4-carboxamide]",1.06 µg/mL
15,"COCCN1C(=O)c2ccccc2C(C(=O)Nc2ccc(CN3CCOCC3)cc2)C1c1cccs1 (stereo not drawn) [C188, 2-(2-methoxyethyl)-N-(4-(morpholinomethyl)phenyl)-1-oxo-3-(thiophen-2-yl)-1,2,3,4-tetrahydroisoquinoline-4-carboxamide]",0.1 µg/mL
16,"COCCN1C(=O)c2ccccc2C(C(=O)Nc2ccc3nccnc3c2)C1c1cccs1 (stereo not drawn) [C171, 2-(2-methoxyethyl)-1-oxo-N-(quinoxalin-6-yl)-3-(thiophen-2-yl)-1,2,3,4-tetrahydroisoquinoline-4-carboxamide]",0.12 µg/mL
17,"COCCN1C(=O)c2ccccc2C(C(=O)Nc2ccc(Cl)c(Cl)c2)C1c1cccs1 (stereo not drawn) [C87, N-(3,4-dichlorophenyl)-2-(2-methoxyethyl)-1-oxo-3-(thiophen-2-yl)-1,2,3,4-tetrahydroisoquinoline-4-carboxamide]",0.15 µg/mL

row,SMILES,IC50
1,"COCCN1C(=O)c2ccccc2C(C(=O)Nc2cccc(OC)c2)C1c1c(F)cccc1F (stereo not drawn) [C10, 3-(2,6-Difluorophenyl)-2-(2-methoxyethyl)-N-(3-methoxyphenyl)-1-oxo-1,2,3,4-tetrahydroisoquinoline-4-carboxamide]",32.1 µg/mL
2,"COCCN1C(=O)c2c(C)cccc2C(C(=O)Nc2cccc(OC)c2)C1c1cccs1 (stereo not drawn) [C42, 2-(2-Methoxyethyl)-N-(3-methoxyphenyl)-8-methyl-1-oxo-3-(thiophen-2-yl)-1,2,3,4-tetrahydroisoquinoline-4-carboxamide]",0.5 µg/mL
3,"COCCN1C(=O)c2ccccc2C(C(=O)Nc2ccc(-n3nc(C)cc3C)cc2)C1c1cccs1 (stereo not drawn) [C201, N-(4-(3,5-dimethyl-1H-pyrazol-1-yl)phenyl)-2-(2-methoxyethyl)-1-oxo-3-(thiophen-2-yl)-1,2,3,4-tetrahydroisoquinoline-4-carboxamide]",0.078 µg/mL
4,"COCCN1C(=O)c2ccccc2C(C(=O)Nc2ccc(-n3cccc3)c(C#N)c2)C1c1cccs1 (stereo not drawn) [C222, N-(3-cyano-4-(1H-pyrrol-1-yl)phenyl)-2-(2-methoxyethyl)-1-oxo-3-(thiophen-2-yl)-1,2,3,4-tetrahydroisoquinoline-4-carboxamide]",0.21 µg/mL
5,"COCCN1C(=O)c2ccc(Cl)cc2C(C(=O)Nc2cccc(OC)c2)C1c1cccs1 (stereo not drawn) [C55, 6-chloro-2-(2-methoxyethyl)-N-(3-methoxyphenyl)-1-oxo-3-(thiophen-2-yl)-1,2,3,4-tetrahydroisoquinoline-4-carboxamide]",43 µg/mL
6,"COCCN1C(=O)c2ccccc2C(COCc2ccccc2)C1c1cccs1 (stereo not drawn) [C76, 4-(benzyloxymethyl)-2-(2-methoxyethyl)-3-(thiophen-2-yl)-3,4-dihydroisoquinolin-1(2H)-one]",22 µg/mL
7,"COCCN1C(=O)c2ccccc2C(C(=O)Nc2cc(C)nn2C)C1c1cccs1 (stereo not drawn) [C109, N-(1,3-dimethyl-1H-pyrazol-5-yl)-2-(2-methoxyethyl)-1-oxo-3-(thiophen-2-yl)-1,2,3,4-tetrahydroisoquinoline-4-carboxamide]",43.4 µg/mL
8,"COCCN1C(=O)c2ccccc2C(C(=O)O)C1c1cccs1 (stereo not drawn) [C36, 2-(2-methoxyethyl)-1-oxo-3-(thiophen-2-yl)-1,2,3,4-tetrahydroisoquinoline-4-carboxylic acid]",47.1 µg/mL
9,"COCCN1C(=O)c2ccccc2C(C(=O)Nc2cccc(Cl)c2)C1c1cccs1 (stereo not drawn) [C60, N-(3-chlorophenyl)-2-(2-methoxyethyl)-1-oxo-3-(thiophen-2-yl)-1,2,3,4-tetrahydroisoquinoline-4-carboxamide]",0.98 µg/mL
10,"COCCN1C(=O)c2ccccc2C(C(=O)Nc2ccc(OC(F)(F)F)cc2)C1c1cccs1 (stereo not drawn) [C113, 2-(2-methoxyethyl)-1-oxo-3-(thiophen-2-yl)-N-(4-(trifluoromethoxy)phenyl)-1,2,3,4-tetrahydroisoquinoline-4-carboxamide]",0.19 µg/mL
11,"COCCN1C(=O)c2ccccc2C(C(=O)Nc2cccc(OC(F)(F)F)c2)C1c1cccs1 (stereo not drawn) [C112, 2-(2-methoxyethyl)-1-oxo-3-(thiophen-2-yl)-N-(3-(trifluoromethoxy)phenyl)-1,2,3,4-tetrahydroisoquinoline-4-carboxamide]",0.31 µg/mL
12,"COCCN1C(=O)c2ccccc2C(C(=O)Nc2cc(C3CC3)nn2C)C1c1cccs1 (stereo not drawn) [C197, N-(3-cyclopropyl-1-methyl-1H-pyrazol-5-yl)-2-(2-methoxyethyl)-1-oxo-3-(thiophen-2-yl)-1,2,3,4-tetrahydroisoquinoline-4-carboxamide]",4 µg/mL
13,"COc1cccc(NC(=O)C2c3ccccc3C(=O)N(CC3CCCCC3)C2c2cccs2)c1 (stereo not drawn) [C22, 2-(Cyclohexylmethyl)-N-(3-methoxyphenyl)-1-oxo-3-(thiophen-2-yl)-1,2,3,4-tetrahydroisoquinoline-4-carboxamide]",4.09 µg/mL
14,"COCCN1C(=O)c2ccccc2C(C(=O)Nc2cccc(-c3cnco3)c2)C1c1cccs1 (stereo not drawn) [C210, 2-(2-methoxyethyl)-N-(3-(oxazol-5-yl)phenyl)-1-oxo-3-(thiophen-2-yl)-1,2,3,4-tetrahydroisoquinoline-4-carboxamide]",0.072 µg/mL
15,"COCCN1C(=O)c2ccccc2C(C(=O)Nc2onc(C)c2C)C1c1cccs1 (stereo not drawn) [C220, N-(3,4-dimethylisoxazol-5-yl)-2-(2-methoxyethyl)-1-oxo-3-(thiophen-2-yl)-1,2,3,4-tetrahydroisoquinoline-4-carboxamide]",2.67 µg/mL
16,"COCCN1C(=O)c2ccccc2C(C(=O)Nc2ccc3occc3c2)C1c1cccs1 (stereo not drawn) [C195, N-(benzofuran-5-yl)-2-(2-methoxyethyl)-1-oxo-3-(thiophen-2-yl)-1,2,3,4-tetrahydroisoquinoline-4-carboxamide]",0.13 µg/mL

# From patent US20110224208A1, “NOVEL INHIBITORS OF FLAVIVIRUS REPLICATION” (KATHOLIEKE UNIVERSITEIT LEUVEN, K.U. LEUVEN R&D, priority 2008, published 2011)
